From PubChem BioAssay AID179 (DTP/NCI, 2004)
Several values for one entry are separate records, joined by “and”; a condition that tells them apart may be missing. Equal entries are not always repeated. Activity calls are given as the source filed them.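 The calls were made as follows: active = compounds giving half or more protection of infected cells from virus-caused growth loss, again on retest; inactive = the rest.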 Where a SMILES comes first, the peptide text is derived from it. The star is where a group is joined. Boc = CC(C)(C)OC(=O)*

Tested on: CEM cells HIV-1 protection, formazan growth assay
Experiment: NCI AIDS Antiviral Assay
Conditions: for IC50: measured here: growth of uninfected CEM cells
In short: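 Soluble formazan readout of cell growth; CEM cells ± HIV-1; 5 drug concs. ≥50% protection → retest; ≥50% again = moderately active; reproducible 100% = confirmed active.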

| SMILES | outcome | EC50 | IC50 |
| --- | --- | --- | --- |
| O=C(N/N=C1/C(=O)N(c2ccc(Cl)cc2Cl)C(=O)C(=O)C1c1nc2ccccc2o1)c1ccccc1O (stereo not given) | inactive |  |  |
| CC1=CC(C(=O)O)P(C)(=O)C1 (stereo not given) | inactive |  |  |
| CC(=O)OC1(C)C=C/C(=N\S(=O)(=O)c2ccc(C)cc2)c2ccccc21 (stereo not given) |  | > 200 µM | 9.33 µM |
| COc1ccc2[nH]c3c(c2c1)CC(=O)N1CCC[C@H](C1)CC31OCCCO1 |  | > 200 µM | 112 µM |
| CCN(CC)C(=S)[S][Bi]([S]C(=S)N(CC)CC)[S]C(=S)N(CC)CC |  | > 7.94 µM | 0.11 µM |
| CC1=NC(C)=C(/C(C)=N/NC(=O)c2ccccc2O)C(C)/C1=C(/C)NNC(=O)c1ccccc1O (stereo not given) |  | > 186 µM | 8.71 µM |
| CC(C)(C)NC(=O)CCC(=O)O |  | > 200 µM | 110 µM |
| C/C(CC(O)(C(F)(F)F)C(F)(F)F)=N\N |  | > 200 µM | > 200 µM |
| O=C(Nc1ccc(N=Nc2ccc(S(=O)(=O)O)cc2)cc1)c1ccc(N=Nc2c(S(=O)(=O)O)cc(O)c3c(NC(=O)c4ccccc4)cc(S(=O)(=O)O)cc23)cc1 | active |  |  |
| CCN(CC)CC(C(=O)Nc1c(C)cccc1C)/C(C)=N\NC(=O)C[N+](C)(C)C (stereo not given) |  | > 40.7 µM | > 40.7 µM |
| C=C(C)C(=O)O[C@H]1CC2(CO)O[C@@H]2CC/C(COC(C)=O)=C/C2OC(=O)C(=C)[C@@H]21 (stereo not given in full) |  | > 200 µM | 4.37 µM |
| COC1=NS(=O)(=O)C2(O1)c1ccccc1-c1ccccc12 |  | > 117 µM | 89.1 µM |
| O=c1[nH]c2nc(SCc3ccccc3)n(Cc3ccccc3)c2c(=O)n1OS(=O)(=O)c1ccccc1 |  | > 200 µM | 75.9 µM |
| O=C(O)CN(CCN(CC(=O)O)CC(=O)O)CC(=O)O |  | > 200 µM | > 200 µM |
| O=[N+]([O-])c1cc([N+](=O)[O-])c(C(Cl)C(Cl)c2ccccc2)cc1C(Cl)C(Cl)c1ccccc1 (stereo not given) |  | > 5.25 µM | > 5.25 µM |
| Cc1ccc(SSc2ccc(C)c(Cl)c2)cc1Cl |  | > 200 µM | > 200 µM |
| C=CCn1c(=O)c2ccccc2[n+]2c(-c3cccc([N+](=O)[O-])c3)csc12 |  | > 200 µM | > 200 µM |
| CCOC(=O)c1cc(-c2ccc(-c3cc(C(=O)OCC)c(C#N)c(N)c3C#N)cc2)c(C#N)c(N)c1C#N |  | > 26.9 µM | > 26.9 µM |
| CCCCc1ccc2[n+](c1)C(C(=O)OCC)=PC2 (stereo not given) |  | > 178 µM | 145 µM |
| Cn1c(O)c(N=NC(N)=S)c2ccccc21 | inactive | > 200 µM | 186 µM |
| NCCCNCCCCN1CC1 |  | > 200 µM | 1.17 µM |
| O=C(O)c1cccc(S(=O)(=O)NN2C(=O)CSC2c2ccccc2)c1 (stereo not given) |  | > 200 µM | > 200 µM |

| SMILES | outcome | EC50 | IC50 |
| --- | --- | --- | --- |
| CC(C)(C)C1C=C(Sc2ccccc2)C(=O)O1 (stereo not given) |  | > 120 µM | 21.4 µM |
| CCn1c(SCC(=O)N/N=C2\SCC(=O)N2c2ccc(C)cc2)nc2ccccc2c1=O |  | > 200 µM | 66.1 µM |
| COc1ccc(OC)c2c(C(C)=O)cccc12 |  | > 200 µM | 97.7 µM |
| C=CC1(CC/C(=C\[N+](=O)[O-])c2ccc(OC)c(OC)c2)OCC(C)(C)CO1 |  | > 200 µM | 17.4 µM |
| Clc1cccc(-n2cccc2)c1 |  | > 200 µM | > 200 µM |
| O=C(CC(C(=O)c1cccs1)c1ccsc1)c1ccsc1 (stereo not given) |  | > 200 µM | 11.5 µM |
| c1ccc(CN(Cc2ccccn2)Cc2ccccn2)cc1 | inactive |  |  |
| COC(=O)/C=C\C(=O)/C=C/COC(=O)c1ccccc1 |  | > 132 µM | 20.9 µM |
| Cc1nc2ccc(Br)cc2c(=O)n1-c1ccc(NC2OCC(O)C(O)C2O)cc1 (stereo not given) |  | > 200 µM | 20.9 µM and 138 µM |
| CC(C)(C)[Si](C)(C)OCCc1ccccc1C1CC2(S(=O)(=O)c3ccccc3)ON1CC2S(=O)(=O)c1ccccc1 (stereo not given) |  | > 16.2 µM | > 16.2 µM |
| O=C1/C(=N\S(=O)(=O)c2ccccc2)C([n+]2ccc(Cc3ccccc3)cc2)=C([O-])c2ccccc21 |  | > 200 µM | 2.63 µM |
| C=C(C)C1CCC(C(=O)O)CC1 (stereo not given) |  | > 200 µM | > 200 µM |
| C[C@@]1(CO)OC(=O)N2CCC[C@H]21 |  | > 1450 µM | > 1450 µM |
| O=c1c(Cc2ccccc2)c(O)cc2n1CCC2 |  | > 148 µM | > 148 µM |
| CCOC(=O)C(Cc1ccccc1)C(=O)OCC |  | > 105 µM | > 105 µM |
| C=C(C)C1CC2=C(C(=O)OC)C=C(O2)C(C(=C)C)[C@@H]2OC(=O)/C(=C\C1O)[C@H]2N(C)C (stereo not given in full) |  | > 20 µM | 5.01 µM |
| CON(C)C(=O)C(C)NC(=O)OCc1ccccc1 (stereo not given) |  | > 933 µM | 813 µM |
| CSC1=C(C#N)C(=S)N=C(N)C1C(=O)Nc1ccc(C)cc1 (stereo not given) |  | > 200 µM | > 100 µM |
| O=C(/C=C/c1ccc(O)c(O)c1O)OCCc1ccccc1 |  | > 200 µM | 2.34 µM |
| C=CC(C)(C)[C@@]12CC3C(=O)N[C@@H](Cc4ccccc4)C(=O)N3[C@@H]1N(C(C)=O)c1ccccc12 (stereo not given in full) |  | > 81.3 µM | 70.8 µM |
| CCC[CH2][Sn]([CH2]CCC)([O]C(=O)C(N)CSC)[O]C(=O)C(N)CSC (stereo not given) |  | > 18.6 µM | 0.129 µM |
| O=C1c2ccccc2C(=O)c2c1nnn2-c1ccccc1 |  | > 200 µM | 3.55 µM |

| SMILES | outcome | EC50 | IC50 |
| --- | --- | --- | --- |
| c1ccc(N2C3Sc4ncccc4C2Sc2ncccc23)cc1 |  | > 66.1 µM | > 66.1 µM |
| COc1ccc(NS(=O)c2cccc(C)c2)cc1 (stereo not given) |  | > 200 µM | 11.2 µM |
| CC(C)COC(=O)NC1C(=O)N2C1SC(C)(C)C2C(=O)O (stereo not given) (tested in a mixture with another compound) |  | 87.1 µM | > 200 µM |
| CSc1nc(C)c(CCOC(C)=O)c(N=P(c2ccccc2)(c2ccccc2)c2ccccc2)n1 |  | > 200 µM | 28.8 µM |
| CCOP(=O)(OCC)/C(=C/NC(=S)c1ccncc1)C(=O)OC |  | 126 µM | 186 µM |
| CCc1n[nH]c(=O)n1CC |  | > 200 µM | > 200 µM |
| CN(C)c1ccc(/C=C(\NC(=O)c2ccccc2)C(=O)Nc2ccccc2C(=O)O)cc1 |  | > 100 µM | > 100 µM |
| Cc1cn(C2CC(SCCO)C(CO)O2)c(=O)[nH]c1=O (stereo not given) |  | > 200 µM | > 200 µM |
| O=C1NC23CC=CCC12CCCCCC3 (stereo not given) |  | > 389 µM |  |
| CN1CCN(C(=S)N(C)C(=O)c2ccc(Cl)cc2)CC1 |  | > 794 µM | 389 µM |
| CCN(CC)C(=O)Cc1c(C(=O)N(CC)CC)c(=O)nc2sccn12 |  | > 692 µM | > 692 µM |
| O=C1/C(=C/c2cccs2)NC(=S)N1CN1CCCCC1 |  | > 200 µM | 33.1 µM |
| CC1(C)C(O)c2ccccc2OC1N1CCN(C2Oc3ccccc3C(O)C2(C)C)CC1 (stereo not given) |  | > 200 µM | > 200 µM |
| CC(NC(=O)C(NC(=O)OC(C)(C)C)C(C)C)C(=O)N1CCCC1C(=O)O (stereo not drawn) (Boc-Val-Ala-Pro-OH; configuration not given here) |  | > 200 µM | > 200 µM |
| CCCCCCCCCCCCCCCCOCC(COP(=O)([O-])OCC[n+]1ccc(N(C)C)cc1)OCC (stereo not given) |  | > 200 µM | 66.1 µM |
| COc1cc(OC)cc(-n2c(N)c(-c3nc4ccccc4n3C)c3ccc([N+](=O)[O-])cc3c2=O)c1 |  | > 200 µM | > 200 µM |
| CCOC(=O)c1cc(C2CCN(c3ccccc3)C2=O)c(/C(O)=C/C(C)=O)[nH]1 (stereo not given) |  | > 200 µM | 5.01 µM |
| O=C1c2ccccc2-c2c3c(cc4ccnc1c24)OCO3 | inactive |  |  |
| Cc1nc(/C=C2\C(=O)C=Cc3ccccc32)c(O)o1 |  | > 102 µM | > 102 µM |
| CCN(CC)c1cc2oc(=O)cc(C)c2cc1[N+](=O)[O-] |  | > 95.5 µM | 40.7 µM |
| C=CS(=O)(=O)O |  | > 200 µM | > 200 µM |
| OCCCN1CCCC12CCCCC2 |  | > 200 µM | > 200 µM |

| SMILES | outcome | EC50 | IC50 |
| --- | --- | --- | --- |
| O=c1[nH]c2cc(Cl)ccc2n1C1CCN(CCCC(c2ccc(F)cc2)c2ccc(F)cc2)CC1 |  | > 200 µM | 18.6 µM |
| O=c1oc2ccccc2c(-c2ccc(O)cc2)c1Oc1ccccc1 |  | > 200 µM | 20 µM |
| O=c1[nH]nc(Cc2ccccc2)n1/N=C/c1ccccc1O |  | > 200 µM | 85.1 µM |
| COc1ccc2oc(=O)c(-c3csc(C)n3)cc2c1 |  | > 151 µM | 138 µM |
| Nc1[nH]c(=S)nc2nc3c4ccccc4c4ccccc4c3nc12 |  | > 200 µM | > 200 µM |
| CCC(C)(C)c1ccc(OP(=S)(S)Oc2ccc(C(C)(C)CC)cc2)cc1 |  | > 200 µM | 37.2 µM |
| Cc1cc(-c2ccccc2)oc(=O)c1NC(=O)c1cnccn1 |  | > 200 µM | 141 µM |
| Cc1c(Cl)cccc1N1C(=O)C(Cl)=C(Cl)C1=O | inactive |  |  |
| O=C1OC(CC(=O)c2ccc(Cl)cc2Cl)C(Cl)=C1Cl (stereo not given) |  | > 148 µM | 53.7 µM |
| CN(C)CCSC1=Nc2ccc(Cl)cc2C(c2ccccc2Cl)N(C)C1 (stereo not given) |  | > 200 µM | 20 µM |
| COC(=O)C(Cn1cnc2c(Cl)nc(N)nc21)P(=O)(OC)OC (stereo not given) |  | > 692 µM | 37.2 µM |
| N#Cc1snc2sc(=O)sc12 |  | > 112 µM | 8.71 µM |
| COc1cc(/C=C/C(=O)c2sc(NNC(C)=O)nc2C)ccc1O |  | > 20.9 µM | > 20.9 µM |
| CCN1CCN=c2c3cc(OC)ccc3n3cnc4ccc1c2c43 |  | > 20 µM | 0.0955 µM |
| O=C(NC/C=C/Br)NC1CCNc2ccccc21 (stereo not given) |  | > 200 µM | 14.1 µM |
| CCCCN=C1OCc2[nH][nH]c(=O)c21 |  | > 1290 µM | > 1290 µM |
| COC(=O)C(COC(=O)/C=C/c1ccc(OC(C)=O)c(OC(C)=O)c1)OC(=O)/C=C/c1ccc(OC(C)=O)c(OC(C)=O)c1 (stereo not given) |  | > 200 µM | 25.7 µM |
| COc1ccc(C(=O)CCN(C)C)cc1 |  | > 200 µM | 36.3 µM |
| O=C(O)CN1CCN2CCCCCN(CC1)CCN(CC(=O)O)CC2 |  | > 200 µM | 12.6 µM |
| CCCCCC(=O)Cc1cc(O)cc2c1C(=O)Oc1cc(O)c(C(=O)O)c(CCCCC)c1O2 |  | > 200 µM | 33.9 µM |
| CCCCCCCCCCCCCCCC(=O)OCC1OC(CO)(OC2OC(CO)C(O)C(O)C2O)C(O)C1O (stereo not given) |  | > 200 µM | 64.6 µM |
| COc1ccc(/C=N/N=C(\[O-])c2ccncc2)cc1F.COc1ccc(/C=N\N=C(/[O-])c2ccncc2)cc1F.[Cu+2] |  | > 100 µM | 18.6 µM |
